The target of this test is T1, Sodium/glucose cotransporter 2 (Homo sapiens, UniProt P31639).
T1 sequence (P31639 whole entry): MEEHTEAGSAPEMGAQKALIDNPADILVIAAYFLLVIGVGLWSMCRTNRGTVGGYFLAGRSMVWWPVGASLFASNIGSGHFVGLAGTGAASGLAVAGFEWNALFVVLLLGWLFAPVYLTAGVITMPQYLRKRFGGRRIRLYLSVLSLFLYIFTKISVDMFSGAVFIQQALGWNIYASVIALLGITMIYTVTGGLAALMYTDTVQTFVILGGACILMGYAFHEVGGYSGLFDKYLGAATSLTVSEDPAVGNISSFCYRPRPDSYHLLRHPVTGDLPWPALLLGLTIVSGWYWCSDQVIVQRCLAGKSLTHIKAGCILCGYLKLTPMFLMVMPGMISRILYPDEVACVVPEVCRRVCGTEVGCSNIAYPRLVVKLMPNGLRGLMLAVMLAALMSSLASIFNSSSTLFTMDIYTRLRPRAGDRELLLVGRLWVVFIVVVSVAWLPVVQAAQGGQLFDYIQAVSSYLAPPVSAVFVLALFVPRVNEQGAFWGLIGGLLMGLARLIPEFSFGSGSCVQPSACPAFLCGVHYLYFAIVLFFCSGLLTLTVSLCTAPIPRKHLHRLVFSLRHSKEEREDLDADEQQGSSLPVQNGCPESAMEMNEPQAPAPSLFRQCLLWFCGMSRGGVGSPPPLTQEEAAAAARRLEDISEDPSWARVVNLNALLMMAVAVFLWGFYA
Description: Inhibition of human SGLT2 expressed in CHO cells using methyl-alpha-D-glucopyranoside by liquid scintillation counting. The test is classed as cell-based.

As usually defined, the IC50 is the point on the concentration scale where inhibition reaches its midpoint. High values mean lower potency, low ones higher potency. On to `OC[C@H]1O[C@@H](c2ccc3c(c2)Cc2ccc(cc2)OC/C=C/CCC3)[C@H](O)[C@@H](O)[C@@H]1O`, for which half-maximal inhibition (IC50) was put at 89.6 nM.
The value for `OC[C@H]1O[C@@H](c2ccc3c(c2)Cc2ccc(cc2)OC/C=C/CCCC3)[C@H](O)[C@@H](O)[C@@H]1O` was 103 nM; that for `OC[C@H]1O[C@@H](c2ccc3c(c2)Cc2ccc(cc2)OCCCCCC3)[C@H](O)[C@@H](O)[C@@H]1O` was 81.9 nM.
Take `OC[C@H]1O[C@@H](c2ccc3c(c2)Cc2ccc(cc2)OCCCCCCC3)[C@H](O)[C@@H](O)[C@@H]1O`: inhibition was half-maximal at 99.7 nM (IC50).

The record behind these values is ChEMBL document CHEMBL1777701, “Glucosides with cyclic diarylpolynoid as novel C-aryl glucoside SGLT2 inhibitors” (Bioorg Med Chem Lett, 2011).
